Measurements: ChEMBL document CHEMBL1821672, “Indolin-2-one p38α inhibitors II: Lead optimisation” (Bioorg Med Chem Lett, 2011)
Converted amounts (≈) assume the structure as drawn.

Legend:
[1] = Metabolic stability in rat hepatic microsomes assessed as compound turnover at 5 uM in presence of NADPH after 30 mins; type: ADME; conditions: liver microsomes, read-out: Activity
[2] = Metabolic stability in rat hepatic microsomes assessed as compound turnover at 5 uM in absence of NADPH after 30 mins; type: ADME; conditions: liver microsomes, read-out: Activity
Caco-2 [3] = assay: (§1) Apparent permeability from apical to basolateral side of the human Caco2 cells; type: ADME, cell-based
Caco-2 [4] = assay: (§2) Apparent permeability from basolateral to apical side of human Caco2 cells; type: ADME, cell-based
[5] = Mean residence time in rat at 1 mg/kg, iv; type: ADME, organism-based; design: dose 1 mg/kg, route intravenous; conditions: in vivo
[6] = AUC (0 to infinity) in rat at 10 mg/kg, po; type: ADME, organism-based; design: time infinity, dose 10 mg/kg, route oral; conditions: plasma
[7] = Solubility in aqueous media at pH 7.4; type: physicochemical
[8] = Metabolic stability in human hepatic microsomes assessed as compound turnover at 5 uM in presence of NADPH after 30 mins; type: ADME; conditions: liver microsomes, read-out: Activity
[9] = Metabolic stability in human hepatic microsomes assessed as compound turnover at 5 uM in absence of NADPH after 30 mins; type: ADME; conditions: liver microsomes, read-out: Activity
[10] = biological target: T1, Mitogen-activated protein kinase 14 (Homo sapiens, UniProt Q16539); assay: Inhibition of human p38alpha using biotinylated ATF2 substrate by FRET assay
T1 sequence (Q16539 whole entry): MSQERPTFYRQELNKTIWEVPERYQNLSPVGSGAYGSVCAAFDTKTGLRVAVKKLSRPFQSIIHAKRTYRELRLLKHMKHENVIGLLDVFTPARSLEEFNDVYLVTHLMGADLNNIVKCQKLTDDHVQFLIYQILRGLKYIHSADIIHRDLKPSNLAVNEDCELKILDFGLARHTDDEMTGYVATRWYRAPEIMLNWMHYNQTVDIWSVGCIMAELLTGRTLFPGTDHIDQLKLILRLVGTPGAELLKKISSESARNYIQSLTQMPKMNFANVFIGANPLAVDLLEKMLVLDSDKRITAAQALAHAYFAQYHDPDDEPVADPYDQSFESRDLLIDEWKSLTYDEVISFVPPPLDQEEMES

[11] = biological target: T1, Mitogen-activated protein kinase 14; assay: Inhibition of p38alpha in human whole blood assessed as reduction in TNF-alpha production by ELISA
[12] = Cytotoxicity against CHO cells at 200 uM; type: cell-based, Cricetulus griseus; conditions: chinese hamster, read-out: INH
[13] = Terminal half life in rat at 1 mg/kg, iv; type: ADME, organism-based; design: dose 1 mg/kg, route intravenous; conditions: in vivo, read-out: beta t1/2 (converted)
[14] = Cmax in rat at 1 mg/kg, iv; type: ADME, organism-based; design: dose 1 mg/kg, route intravenous; conditions: in vivo
[15] = Clearance in rat at 1 mg/kg, iv; type: ADME, organism-based; design: dose 1 mg/kg, route intravenous; conditions: in vivo
[16] = AUC (0 to infinity) in rat at 1 mg/kg, iv; type: ADME, organism-based; design: time infinity, dose 1 mg/kg, route intravenous; conditions: plasma
[17] = Volume of distribution at steady state in rat at 1 mg/kg, iv; type: ADME, organism-based; design: dose 1 mg/kg, route intravenous; conditions: in vivo, read-out: Vdss
[18] = Cmax in rat at 10 mg/kg, po; type: ADME, organism-based; design: dose 10 mg/kg, route oral; conditions: in vivo
Rattus norvegicus = species on record: Rattus norvegicus; assay: Hepatic blood flow in rat; type: ADME, organism-based, Liver
[19] = Oral bioavailability in rat at 10 mg/kg; type: ADME, organism-based; conditions: in vivo
[20] = biological target: RAF proto-oncogene serine/threonine-protein kinase (Homo sapiens, UniProt P04049); assay: Inhibition of human c-RAF
RAF proto-oncogene serine/threonine-protein kinase, sequence (P04049 whole entry): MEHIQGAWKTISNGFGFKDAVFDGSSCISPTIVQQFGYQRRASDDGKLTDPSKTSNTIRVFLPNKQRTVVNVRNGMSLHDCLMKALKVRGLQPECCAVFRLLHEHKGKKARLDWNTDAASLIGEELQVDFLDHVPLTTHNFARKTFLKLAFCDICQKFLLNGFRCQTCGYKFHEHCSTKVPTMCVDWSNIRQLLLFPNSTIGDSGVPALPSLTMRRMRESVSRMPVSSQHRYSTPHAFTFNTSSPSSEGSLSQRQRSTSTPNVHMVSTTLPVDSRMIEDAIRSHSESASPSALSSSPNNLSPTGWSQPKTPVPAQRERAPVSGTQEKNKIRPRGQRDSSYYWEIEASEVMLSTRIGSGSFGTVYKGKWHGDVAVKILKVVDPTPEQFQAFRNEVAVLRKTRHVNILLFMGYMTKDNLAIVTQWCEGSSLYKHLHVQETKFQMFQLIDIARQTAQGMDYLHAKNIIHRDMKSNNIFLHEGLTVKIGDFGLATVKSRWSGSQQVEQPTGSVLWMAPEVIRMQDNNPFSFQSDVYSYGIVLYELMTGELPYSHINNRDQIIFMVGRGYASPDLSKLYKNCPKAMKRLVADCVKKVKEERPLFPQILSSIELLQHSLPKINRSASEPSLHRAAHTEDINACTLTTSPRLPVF

CHO = assay: Cytotoxicity against CHO cells; type: cell-based; conditions: Cricetulus griseus
[21] = as §1; type: ADME, cell-based; conditions: caco-2
[22] = as §2; type: ADME, cell-based; conditions: caco-2

SMILES | metabolised at 0.5 h, 5 µM [1] | metabolised at 0.5 h, 5 µM [2] | Papp (Caco-2 [3]) | Papp (Caco-2 [4]) | metabolised at 0.5 h, 5 µM [8] | metabolised at 0.5 h, 5 µM [9] | IC50 [10] | IC50 [11] | other results
Cc1ccc(C(=O)NC2CC2)cc1-c1ccc2c(c1)NC(=O)C21CCCC1 | 44% | < 5% | permeable | permeable | – | – | – | – | MRT [5]: 2.1 h; AUC(0-inf) [6]: 2640 ng·h/mL; solubility [7]: 3 µg/mL (≈ 8.32 µM)
Cc1ccc(C(=O)NC2CC2)cc1-c1ccc2c(c1)NC(=O)C21CCCCC1 | 47% | < 5% | permeable | permeable | 57% | 29% | – | – | –
Cc1ccc(C(=O)NC2CC2)cc1-c1ccc2c(c1)NC(=O)C2(CCO)CCO | – | – | permeable | permeable | – | – | 4570 nM | – | –
Cc1ccc(C(=O)NC2CC2)cc1-c1ccc2c(c1)NC(=O)C21CCN(C)CC1 | 13% | – | permeable | permeable | 15% | 17% | – | 9.6 nM | cytotoxicity at 200 µM [12]: 40%; half-life [13]: 5.1 h; Cmax [14]: 133 ng/mL; clearance [15]: 73.3 mL/min/kg; AUC(0-inf) [16]: 226 ng·h/mL; Vd [17]: 19.1 L/kg; MRT [5]: 4.3 h; Cmax [18]: 134 ng/mL; AUC(0-inf) [6]: 786 ng·h/mL; QH (Rattus norvegicus): > 85%; bioavailability [19]: 35%
Cc1c(F)cc(C(=O)NC2CC2)cc1-c1ccc2c(c1)NC(=O)C21CCN(S(C)(=O)=O)CC1 | 18% | < 5% | permeable | permeable | 36% | 53% | – | 20 nM | –
Cc1ccc(C(=O)NC2CC2)cc1-c1ccc2c(c1)NC(=O)C21CCS(=O)(=O)CC1 | 0% | < 5% | – | – | 5% | 11% | – | 75 nM | Papp A→B [21]: 4 ×10⁻⁶ cm/s; Papp B→A [22]: 25 ×10⁻⁶ cm/s
Cc1ncc(C(=O)NC2CC2)cc1-c1ccc2c(c1)NC(=O)C21CCCC1 | 30% | < 5% | permeable | permeable | 29% | 11% | 7.4 nM | 150 nM | cytotoxicity at 200 µM [12]: 68%
Cc1ccc(C(=O)NC2CC2)cc1-c1ccc2c(n1)NC(=O)C21CCCC1 | 33% | 11% | permeable | permeable | 19% | 16% | – | 128 nM | IC50 (CHO): 58000 nM
Cc1ccc(C(=O)NC2CC2)cc1-c1cc2c(cn1)C1(CCCC1)C(=O)N2 | 21% | < 5% | permeable | permeable | 10% | < 5% | – | 64 nM | cytotoxicity at 200 µM [12]: 29%
Cc1ccc(C(=O)NC2CC2)cc1-c1cnc2c(c1)NC(=O)C21CCCC1 | 16% | < 5% | permeable | permeable | 19% | 10% | 1.8 nM | 69 nM | cytotoxicity at 200 µM [12]: 62%; IC50 [20]: 105 nM
Cc1ccc(C(=O)NC2CC2)cc1-c1cnc2c(c1)NC(=O)C21CCOCC1 | 0% | 5% | permeable | permeable | 8% | 16% | – | 86 nM | cytotoxicity at 200 µM [12]: 36%
Cc1ccc(C(=O)NC2CC2)cc1-c1cnc2c(c1)NC(=O)C21CCC(F)(F)CC1 | 19% | < 5% | permeable | permeable | 1% | < 5% | 2.3 nM | 188 nM | IC50 (CHO): 49000 nM
Cc1ccc(C(=O)NC2CC2)cc1-c1cnc2c(c1)NC(=O)C2(C)C | 2% | < 5% | permeable | permeable | 8% | 7% | – | 544 nM | –
Cc1ccc(C(=O)NC2CC2)cc1-c1ncc2c(n1)NC(=O)C21CCCC1 | – | – | permeable | permeable | – | – | – | 1100 nM | –
Cc1ccc(C(=O)NC2CC2)cc1-c1cnc2c(c1)NC(=O)C21CCCC1.Cl | – | – | – | – | – | – | – | – | half-life [13]: 3.9 h; Cmax [14]: 1240 ng/mL; clearance [15]: 10 mL/min/kg; AUC(0-inf) [16]: 1850 ng·h/mL; Vd [17]: 1.2 L/kg; MRT [5]: 2.2 h; Cmax [18]: 4620 ng/mL; AUC(0-inf) [6]: 12000 ng·h/mL; bioavailability [19]: 65%

Continued by falling IC50 [11], values first:

metabolised at 0.5 h, 5 µM [1] | metabolised at 0.5 h, 5 µM [2] | Papp (Caco-2 [3]) | Papp (Caco-2 [4]) | metabolised at 0.5 h, 5 µM [8] | metabolised at 0.5 h, 5 µM [9] | IC50 [10] | IC50 [11] | SMILES | other results
97% | < 5% | permeable | permeable | 72% | 41% | 0.08 nM | 16 nM | Cc1ccc(C(=O)NC2CC2)cc1-c1ccc2c(c1)NC(=O)C21CCSCC1 | IC50 (CHO): 16000 nM
16% | < 5% | permeable | permeable | 34% | 40% | 1.65 nM | 14 nM | Cc1ccc(C(=O)NC2CC2)cc1-c1ccc2c(c1)NC(=O)C21CCOCC1 | half-life [13]: 2.7 h; Cmax [14]: 1530 ng/mL; clearance [15]: 6.67 mL/min/kg; AUC(0-inf) [16]: 2770 ng·h/mL; Vd [17]: 0.8 L/kg; MRT [5]: 2.2 h; Cmax [18]: 1310 ng/mL; AUC(0-inf) [6]: 10400 ng·h/mL; IC50 [20]: 120 nM; bioavailability [19]: 40%
15% | 7% | permeable | permeable | 40% | 61% | 1.4 nM | 11 nM | Cc1ccc(C(=O)NC2CC2)cc1-c1ccc2c(c1)NC(=O)[C@]21CC[C@H](O)CC1 | –
< 5% | < 5% | permeable | permeable | < 5% | < 5% | – | 10 nM | Cc1ccc(C(=O)NC2CC2)cc1-c1ccc2c(c1)NC(=O)C21CCC(F)(F)CC1 | IC50 (CHO): 7000 nM; half-life [13]: 14.4 h; Cmax [14]: 436 ng/mL; clearance [15]: 3.33 mL/min/kg; AUC(0-inf) [16]: 5020 ng·h/mL; Vd [17]: 4.2 L/kg; MRT [5]: 21 h
23% | < 5% | permeable | permeable | 74% | 72% | 0.09 nM | 7 nM | Cc1ccc(C(=O)Nc2ccon2)cc1-c1ccc2c(c1)NC(=O)C21CCOCC1 | –
2% | < 5% | permeable | permeable | 65% | 81% | 1.4 nM | 5 nM | Cc1ccc(C(=O)NC2CC2)cc1-c1ccc2c(c1)NC(=O)[C@]21CC[C@@H](O)CC1 | –
14% | < 5% | permeable | permeable | 17% | 17% | 0.9 nM | 4.9 nM | Cc1ccc(C(=O)Nc2ccon2)cc1-c1ccc2c(c1)NC(=O)C21CCC(F)(F)CC1 | –
